One may read the logP as a log measure of how a compound divides between an organic and an aqueous phase. Lower therefore signals lower lipophilicity.

Compound `CC(=O)NNC(=O)Nc1ccc([N+](=O)[O-])cc1` yielded a logP of 0.77. The value for `CC(=O)NNC(=O)Nc1ccc(O)cc1` was -0.79; that for `CC(=O)NNC(=O)Nc1ccc(N(C)C)cc1` was 0.11. The value for `CC(=O)NNC(=O)Nc1ccc(Br)cc1` was 1.38. The value for `CC(=O)NNC(=O)Nc1ccc(C)cc1` was 0.67.

Compound `CC(=O)NNC(=O)Nc1cccc(F)c1` showed a logP of 0.73. Take `CC(=O)NNC(=O)Nc1ccc(I)cc1`: the log partition coefficient (logP) worked out at 1.65. Turning to `CCOc1ccc(NC(=O)NNC(C)=O)cc1`, the logP was 0.51.

On to `CC(=O)NNC(=O)Nc1cccc(Cl)c1`, for which the logP came out at 1.33. For the compound `CC(=O)NNC(=O)Nc1cccc([N+](=O)[O-])c1`, the logP amounted to 0.67. In turn, `CC(=O)NNC(=O)Nc1cccc(C(F)(F)F)c1` registered a logP of 1.59. In turn, `COc1cccc(NC(=O)NNC(C)=O)c1` showed a lipophilicity (logP) of 0.33. In turn, `CC(=O)NNC(=O)Nc1ccc(C#N)cc1` came in with a logP of 0.38. This logP and that of the compound before are within 0.2 log units of each other. The value for `CC(=O)NNC(=O)Nc1cccc(I)c1` was 1.71.

For the compound `CC(=O)NNC(=O)Nc1cccc(C)c1`, the logP stood at 0.75. Regarding `CC(=O)NNC(=O)Nc1ccccc1`, the logP came to 0.25.

Consider `CC(=O)NNC(=O)Nc1cccc(Br)c1`, for which the logP is 1.48. Compound `CC(=O)NNC(=O)Nc1ccc(Cl)cc1` yielded a logP of 1.12. For the compound `COc1ccc(NC(=O)NNC(C)=O)cc1`, the logP amounted to 0.11. The value for `CC(=O)NNC(=O)Nc1ccc(C(C)(C)C)cc1` was 2.08; that for `CC(=O)NNC(=O)Nc1ccc(Oc2ccccc2)cc1` was 2.01; that for `CC(=O)NNC(=O)Nc1ccc(F)cc1` was 0.45.

The values are drawn from the OPERA property sets (Mansouri et al. 2018).
